This note sets out measurements from publication PMC11770746 (Journal of Medicinal Chemistry, 2025).

The test system of series [1] is murine CT26 colon cancer model. As to the kind of experiment: In vivo inhibition of tumor growth. Particulars: CT26 s.c. in BALB/c mice, i.p. every other day up to 4 doses, equimolar: cisplatin 3, paclitaxel 8.5, combination 3 + 8.5, cisPt(Pac)(OH) and its micelles 12 mg/kg.
In series [2] the test system is PC9 non-small-cell lung cancer cells. As to the kind of experiment: Antiproliferative MTT assay, 72 h. The settings on record: PC9, 72 h treatment. Type of series: cell-based, human.
Experimental: (§4) After 72 h of exposure, the cell biomass was determined by 3-(4,5-dimethylthiazol-2-yl)-2,5-diphenyl tetrazolium bromide (MTT) (Sigma-Aldrich) staining, and the absorptions were calculated as the delta of two measurements of the same well at wavelengths 570 and 690 nm. IC50 values were determined as the concentration that caused 50% inhibition of cell proliferation compared to an untreated control. The results were calculated as the mean values of three independent experiments.
(§5) PC9 human non-small-cell lung carcinoma cells, A375 human malignant melanoma cells, and CT26 WT murine colon carcinoma cells were maintained in DMEM (high glucose, no glutamine/sodium pyruvate) supplemented with L-glutamine solution (4 mM) (2% v/v), 10% (v/v) heat-inactivated fetal bovine serum (South American origin, European grade), and 1% (v/v) penicillin–streptomycin solution (containing penicillin G sodium salt: 10 000 units/mL and streptomycin sulfate: 10 mg/mL) and were passaged twice a week.
In series [3] the test system is A2780 ovarian carcinoma cells. As to the kind of experiment: Antiproliferative MTT assay, 72 h. Type of series: cell-based, human. Particulars: A2780, 72 h treatment.
Experimental: as §4, §5
For series [4], the system named is CT26 murine colon cancer cells. In words: Antiproliferative MTT assay, 72 h. Type of series: cell-based. The settings on record: CT26, 72 h treatment. In general terms: Tetrazolium assays rely on reduction of a dye to a coloured formazan, in cell work by metabolically active cells.
Experimental: as §4, §5
The test system of series [5] is mice. In words: Mechanical allodynia, von Frey assay. Particulars: for mechanical allodynia (in words): compared with the untreated mice. As for the experimental part:
(§1) Von Frey, hot plate, acetone evaporation, and ocular aperture ratio studies were carried out in Balb/c mice according to reported methods.[3] […] Final injection volume was 150 μL. Afterward, tests were carried out 1, 2, and 3 weeks post first injection.
8-week-old Balb/c mice were purchased from Envigo (Israel). Pain thresholds were assessed by observing withdrawal responses to mechanical stimulation of the plantar skin by using von Frey filaments. The mice were placed on a grid and allowed to accustom to the new environment for at least half an hour. The hind paw was touched vertically on the plantar surface with the tip of the filament. Once the fiber bends, the force applied is the maximum, making the repetitions reproducible. Hairs calibrated for forces between 0.008 and 2 g were applied 10 times each in ascending order of force at 5 s intervals to both hind paws. Sharp and quick leg withdrawal or immediate jumping in response to a touch with the hairs was considered as a withdrawal response. Paw movements associated with locomotion were not counted as the withdrawal response. The threshold of withdrawal response was defined when 6 out of 10 applications elicited pain responses. each group contained six animals.

For series [6], the system named is mice. In words: Ongoing pain, eye-closing ratio. Type of series: in vivo. Particulars: i.p. days 1, 3, 5. As for the experimental part:
Finally, we assessed whether the treatment with cisPt(OAc)2 or cisPt(Pac)(OH) prevents chemotherapy-induced ongoing pain, by assessing the eye-closing ratio.[53]−[55] The eye-closing ratio test was carried out prior to conducting the induced pain experiments. The eye-closing ratio was obtained by dividing the distance between the edges of the upper and lower eyelids by the length of the canthus (horizontal distance across the eye), where a value of 0 was given to completely closed eyes (indicating pain), and a value of 1 was given to fully open eyes (lack of pain).
as §1
The raw data for the ongoing pain was obtained by taking 3–5 photographs of each of the awake (not immobilized) mice and used such that the position of the eyelids in relation to the eye was clearly visible. The data were analyzed in a blind fashion by using the imaging software, ImageJ, to measure the length between the internal and external canthus (x) and the distance between the edge of the upper and lower eyelids (y). Finally, the ratio of y/x was calculated, and a value between 0 and 1 was obtained for each photo, where 0 is equivalent to the eye completely closed and 1 is equivalent to the eye completely open. The values obtained were an average of the values of the six animals in each group.

Series [7] deals with A375 melanoma cells. In words: Antiproliferative MTT assay, 72 h. Type of series: cell-based, human.
Experimental: as §4, §5
Series [8] relates to A2780cisR cisplatin-resistant ovarian carcinoma cells. In words: Antiproliferative MTT assay, 72 h. Type of series: cell-based, human. The settings on record: 72 h treatment.
Experimental: as §4, §5
Series [9] deals with all cancer cell lines. In words: Antiproliferative MTT assay, summary over the panel. Particulars: all cancer cell lines of the panel, 72 h. Type of series: cell-based.
Experimental: as §4
Series [10] deals with mice. Type of series: in vivo. Particulars: acetone test; compared with cisplatin, paclitaxel, or their 1:1 co-administration. As for the experimental part: (§2) The sensitivity to noxious heat was assessed by placing the mice on a hot plate (54 ± 1 °C) and measuring the latency (s), the time until the mice began licking their paws, shaking, or jumping to avoid the heat.
as §1
The test was carried out on a mesh floor, and acetone was dabbed on the plantar surface of the hind paw. Sensitivity to cold was recorded by the duration of nocifensive responses such as brisk withdrawal, flick of the paw, repeated flicking of the paw, repeated flicking of the hind paw, and licking of the paw. each group contained six animals.

Series [11] is described as follows: Stability of the Pt(IV) compounds in RPMI medium, monitored by HPLC. Type of series: physicochemical. Particulars: pH = 7, 37 °C, HPLC peak area. As for the experimental part:
The stability of the Pt(IV) compounds was measured in RPMI medium, at pH = 7 and 37 °C, by monitoring the peak area of the prodrugs as a function of time.
Pt(IV) complexes were dissolved in 1% DMSO and RPMI medium at pH 7.4, and kept at 37 °C. Stability half-lives, t1/2, were calculated by linear fitting of ln(At/A0) vs time (t), where At and A0 are the integrated peak areas by HPLC […].

Series [12] has as its system mice. Type of series: in vivo. The settings on record: hot plate 54 ± 1 °C; compared with cisplatin, paclitaxel, or their 1:1 co-administration. As for the experimental part:
as §2, §1
Unrestrained mouse was placed on a metal surface that was maintained at a constant temperature (54 ± 1 °C) and the response latency, which is the time taken to observe a nocifensive behavior, was recorded. These behaviors include fore paw withdrawal or licking, hind paw withdrawal or licking, stamping, leaning posture, and jumping. each group contained six animals. If no nocifensive behaviors were observed, the animals were removed from the hot plate after 30 s to prevent tissue damage.

Series [13] is described as follows: Reduction by 10 equiv of ascorbic acid, monitored by HPLC. Type of series: physicochemical. The settings on record: 10 eq. ascorbic acid, pH = 7, 37 °C. As for the experimental part:
To verify that the Pt(IV) prodrugs are activated by reduction, we incubated them with 10 eq. of ascorbic acid at pH = 7 at 37 °C and monitored by HPLC the reduction of the peak of the parent compound as a function of time.
The half-lives (t1/2) of all compounds were obtained after linear fitting of ln(At/A0) vs time (t) by considering a pseudo-first-order rate equation (At = A0e^–kt), where A0 and At are the integrated areas of HPLC peaks of the respective complexes at t = 0 and at time t, respectively, and k (slope) is the rate constant. Then, t1/2 was calculated by utilizing the equation t1/2 = 0.693/k.

Series [14] in a line: Platinum accumulation in organs and tumor by ICP-MS (CT26 study). Type of series: in vivo, mice. Particulars: ICP-MS at end of the CT26 experiment. As for the experimental part:
Four-week-old female BALB/cAnNTac mice weighing 16–18 g were purchased from InVivos (Singapore). The animals were housed in Comparative Medicine (CM)-holding units at the National University of Singapore in a pathogen-free environment at constant temperature in a 12/12 h light/dark cycle environment. The mice were acclimatized for 3 days and given access to food and water ad libitum. The mouse colon carcinoma cells CT26 (1 × 10^5 cells in 100 μL of sterile PBS) were subcutaneously injected into the right flank of the mice. The administration of tested compounds was started when tumors became palpable (volume of ∼30 mm^3) on day 13. Subsequently, the animals were separated into 5 groups (n = 6 each) and injected i.p. with different compounds every other day up to 4 doses. Control mice were injected ip with 100 μL of sterile saline. The animals were controlled for pain and/or distress development, and the body weight and tumor size were closely monitored. All animals were alert and responsive during the whole experiment. The mice were euthanized when the diameter of the tumor reached 1.5 cm or upon development of ulceration. The tumor and organs (liver, kidney, and spleen) were collected […].
(§3) Samples were weighed and mineralized with highly pure 70% nitric acid (Pt: ≤0.01 μg kg^–1, TraceSELECT Ultra, Sigma Chemical Co.) for 3 h. Afterward, solutions were completely dried at 110 °C and 1000 μL of 1% HNO3 was added. The platinum content of each sample was measured by ICP-MS. The calibration curve was obtained using known concentrations of standard solutions purchased from Sigma Chemical Co.

For series [15], the system named is kidney. Particulars: mouse, in vivo. From the text: At the end of the experiments, mice were euthanized, and the tumor, spleen, liver, and kidneys were isolated and analyzed in terms of platinum content by ICP-MS (Figure 4F).
All of the kidney (left kidney) samples were flash-frozen immediately after weighing for cryosections for the histopathological evaluation using H&E staining technique. The tissues were embedded in the OCT compound and 10 μm thick sections were cut and placed onto glass slides using the Leica CM3050 S Cryostat. The slides were dried in a desiccator for approximately 1 h before rinsing in water. Sections are ready for staining immediately after rinse. The slides were stained with H&E (Hematoxylin and eosin) using Leica Autostainer XL. Then, the slides were dehydrated through ascending series of ethanol to xylene before being coverslipped using Leica Coverslipper CV5030. The slides were imaged using the LABOMED Opti CX biological microscope. At least two sections of each kidney sample were stained and 5–10 images were taken for each section under 10× and 40× magnifications. The images were analyzed for histopathological changes by two pathologists in a blinded manner.

Series [16] can be described thus: Platinum accumulation in the DRG by ICP-MS. Type of series: in vivo, mice. The settings on record: day 7 after injections on days 1, 3, 5. As for the experimental part:
To explore whether the differences in the behavioral tests between cisplatin, cisplatin + paclitaxel, and cisPt(Pac)(OH) correlate with platinum accumulation in the DRG, we quantified the platinum in the DRG.
Afterward, on days 7–10, animals from each group were anesthetized using isoflurane and decapitated. Thereafter, DRG were removed and placed in DDW at room temperature.
as §3

Series [17] in a line: Body weight changes in the CT26 efficacy study (general toxicity). Type of series: in vivo, mice. The settings on record: i.p., equimolar doses.
Experimental: Four-week-old female BALB/cAnNTac mice weighing 16–18 g were purchased from InVivos (Singapore). The animals were housed in Comparative Medicine (CM)-holding units at the National University of Singapore in a pathogen-free environment at constant temperature in a 12/12 h light/dark cycle environment. The mice were acclimatized for 3 days and given access to food and water ad libitum. The mouse colon carcinoma cells CT26 (1 × 10^5 cells in 100 μL of sterile PBS) were subcutaneously injected into the right flank of the mice. The administration of tested compounds was started when tumors became palpable (volume of ∼30 mm^3) on day 13. Subsequently, the animals were separated into 5 groups (n = 6 each) and injected i.p. with different compounds every other day up to 4 doses. Control mice were injected ip with 100 μL of sterile saline. The animals were controlled for pain and/or distress development, and the body weight and tumor size were closely monitored. […] The mice were euthanized when the diameter of the tumor reached 1.5 cm or upon development of ulceration.

A word on the IC50: it is the concentration that inhibits the measured activity by half. Lower therefore signals inhibition by little substance. `CC(=O)O[C@H]1C(=O)[C@@]2(C)[C@H]([C@H](OC(=O)c3ccccc3)[C@]3(O)C[C@H](OC(=O)[C@H](O)[C@@H](NC(=O)c4ccccc4)c4ccccc4)C(C)=C1C3(C)C)[C@]1(OC(C)=O)CO[C@@H]1C[C@@H]2O` [paclitaxel]: the “Inhibition of Tumor Growth (TGI)” value in [1] is 27%. Moreover, the half-maximal inhibitory concentration (IC50) came to 4.5 ± 2 nM in [2] (Homo sapiens); 2.2 ± 1 nM in [3] (Homo sapiens); 384 ± 109 nM in [4] (Mus musculus); 14 ± 4 nM in series [7] (Homo sapiens, A-375, A375, 72 h treatment); 3 ± 1 nM in series [8] (Homo sapiens). Besides, the “mechanical allodynia (in words)” value in series [5] (von Frey) is on record as “persistent reduction in the withdrawal threshold”. Further, the “ongoing (spontaneous) pain” value in [6] is recorded as “substantial spontaneous pain”. The “IC50 values (in words)” value in series [9] is reported as “low nM”.

On to `CC(=O)[O][Pt]([Cl])([Cl])[O]C(C)=O.N.N` [cisPt(OAc)2], for which the cold allodynia result in [10] is listed as “significantly reduced cold allodynia”. In addition, the “t1/2 RPMI 1640” value in series [11] was 120 h. Further, the thermal hyperalgesia entry in [12] was “significantly reduced”. In addition, the “ongoing (spontaneous) pain” value in [6] was “did not induce any ongoing pain”. The “t1/2 10 equiv Asc” value in [13] was 7.8 h.

Consider `N.N.[Cl][Pt][Cl]` [cisplatin], for which, in series [1], the “Inhibition of Tumor Growth (TGI)” value amounted to 41%. The IC50 stood at 5290 ± 1750 nM in [2]; 1180 ± 130 nM in series [3]; 5890 ± 1190 nM in series [4]; 1910 ± 620 nM in [7] (A375, 72 h treatment); 16200 ± 3140 nM in [8]. For the same compound, in series [5] (von Frey), the “mechanical allodynia (in words)” value is “persistent reduction in the withdrawal threshold”. Further, the “reduction of withdrawal threshold” value in series [5] (von Frey, compared with untreated mice) is “about 95%”. Further, the “ongoing (spontaneous) pain” value in series [6] is given as “substantial spontaneous pain”. Also, the “levels of Pt in the kidneys” value in [14] is on record as “high levels of Pt”. Besides, the “platinum levels in the tumor” value in series [14] is given as “rather similar”. The “histopathological changes of the kidney tubules” value in series [15] was “focal tubular necrosis”. The “IC50 values (in words)” value in [9] is recorded as “low μM”.

Turning to `CC(=O)[O][Pt]1([O]C(C)=O)[O]C(=O)C(=O)[O]1.NC1CCCCC1N` [Oxali(OAc)2], the “t1/2 RPMI 1640” value in series [11] was 742 h. For the same compound, in [5] (male and female mice, 5.19 mg/kg i.p. days 1, 3, 5), the “neuropathic pain by withdrawal thresholds to mechanical stimuli” value is on record as “did not induce neuropathic pain”. In addition, in series [13], the “t1/2 10 equiv Asc” value was determined as 63 h.

As to “ctc-[Pt(NH3)2(Pac)(OH)Cl2] [cisPt(Pac)(OH)]”, in series [10], the cold allodynia entry is “significantly reduced cold allodynia”. Further, the “t1/2 RPMI 1640” value in [11] was determined as 35 h. The “Inhibition of Tumor Growth (TGI)” value in series [1] was found to be 65%. In addition, the IC50 stood at 6 ± 1 nM in [2]; 4.5 ± 2 nM in series [3]; 406 ± 106 nM in [4]; 18 ± 3 nM in series [7] (A375, 72 h treatment); 5.9 ± 0.1 nM in [8]. Moreover, in series [16], the “platinum levels in the DRG” value was “lower than after treatment with cisplatin or the co-treatment with cisplatin and paclitaxel”. The “body weight loss compared to the control” value in [17] is given as “did not exhibit any substantial weight loss”. The thermal hyperalgesia result in [12] is “significantly reduced”. Also, the “ongoing (spontaneous) pain” value in series [6] was “did not induce any ongoing pain”. Also, the “levels of Pt in the kidneys” value in series [14] is given as “much lower levels”. Moreover, in series [14], the “platinum levels in the tumor” value is “rather similar”. Moreover, the “kidney toxicity (creatinine and histopathology)” value in series [15] was “lower kidney toxicity”. Besides, in [9], the “IC50 values (in words)” value is “low nM”. Also, the “t1/2 10 equiv Asc” value in series [13] amounted to 0.16 h.
